Assay results reported in patent publication US10696615B2, “Prenylated hydroxystilbenes” (The University of Sydney, priority 2011, dated 2020).

Assays:
A498 = assay: NCI in vitro cancer screen, Renal Cancer; format: cell-based, human; details: A498; for GI50 / CC50: Homo sapiens; for CC50: read-out: LC50 (the source's name)
U251 = assay: NCI in vitro cancer screen, CNS Cancer; format: cell-based, human; details: U251; for GI50 / CC50: Homo sapiens, U-251; for CC50: read-out: LC50 (the source's name)
NCI-H23 = assay: NCI in vitro cancer screen, Non-Small Cell Lung Cancer; format: cell-based, human; details: NCI-H23
NCI-H226 = assay: as above; format: cell-based, human; details: NCI-H226
MALME-3M = assay: NCI in vitro cancer screen, Melanoma; format: cell-based, human; details: for GI50 / CC50: Homo sapiens, Malme-3M; for CC50: read-out: LC50 (the source's name); for TGI: MALME-3M
SF-539 = assay: NCI in vitro cancer screen, CNS Cancer; format: cell-based; details: SF-539; for GI50 / CC50: Homo sapiens; for CC50: read-out: LC50 (the source's name)
PC-3 = assay: NCI in vitro cancer screen, Prostate Cancer; format: cell-based, human; details: PC-3; for GI50 / CC50: Homo sapiens; for CC50: read-out: LC50 (the source's name)
CAKI-1 = assay: NCI in vitro cancer screen, Renal Cancer; format: cell-based, human; details: CAKI-1; for GI50 / CC50: Homo sapiens; for CC50: read-out: LC50 (the source's name)
MDA-MB-468 = assay: NCI in vitro cancer screen, Breast Cancer; format: cell-based, human; details: MDA-MB-468; for GI50 / CC50: Homo sapiens; for CC50: read-out: LC50 (the source's name)
NCI-H522 = assay: NCI in vitro cancer screen, Non-Small Cell Lung Cancer; format: cell-based, human; details: NCI-H522; for GI50 / CC50: Homo sapiens; for CC50: read-out: LC50 (the source's name)
TK-10 = assay: NCI in vitro cancer screen, Renal Cancer; format: cell-based, human; details: TK-10
SF-295 = assay: NCI in vitro cancer screen, CNS Cancer; format: cell-based, human; details: SF-295; for GI50 / CC50: Homo sapiens; for CC50: read-out: LC50 (the source's name)
NCI-H460 = assay: NCI in vitro cancer screen, Non-Small Cell Lung Cancer; format: cell-based, human; details: NCI-H460; for GI50 / CC50: Homo sapiens; for CC50: read-out: LC50 (the source's name)
LOX IMVI = assay: NCI in vitro cancer screen, Melanoma; format: cell-based, human; details: for GI50 / CC50: Homo sapiens; for CC50: read-out: LC50 (the source's name)
SK-MEL-28 = assay: NCI in vitro cancer screen, Melanoma; format: cell-based, human; details: SK-MEL-28
[1] = test system: MDA-MB-231 (MDA-MB-231/ATCC); assay: NCI in vitro cancer screen, Breast Cancer; format: cell-based, human; details: MDA-MB-231; for GI50 / CC50: Homo sapiens; for CC50: read-out: LC50 (the source's name)
HOP-92 = assay: NCI in vitro cancer screen, Non-Small Cell Lung Cancer; format: cell-based, human; details: HOP-92; for GI50 / CC50: Homo sapiens; for CC50: read-out: LC50 (the source's name)
SNB-19 = assay: NCI in vitro cancer screen, CNS Cancer; format: cell-based, human; details: SNB-19; for GI50 / CC50: Homo sapiens; for CC50: read-out: LC50 (the source's name)
KM12 = assay: NCI in vitro cancer screen, Colon Cancer; format: cell-based, human; details: KM12; for GI50 / CC50: Homo sapiens; for CC50: read-out: LC50 (the source's name)
UO-31 = assay: NCI in vitro cancer screen, Renal Cancer; format: cell-based, human; details: UO-31; for GI50 / CC50: Homo sapiens; for CC50: read-out: LC50 (the source's name)
IGROV1 = assay: NCI in vitro cancer screen, Ovarian Cancer; format: cell-based, human; details: IGROV1; for GI50 / CC50: Homo sapiens, IGROV-1; for CC50: read-out: LC50 (the source's name)
SN12C = assay: NCI in vitro cancer screen, Renal Cancer; format: cell-based, human; details: for GI50 / CC50: Homo sapiens; for CC50: read-out: LC50 (the source's name)
MDA-MB-435 = assay: NCI in vitro cancer screen, Melanoma; format: cell-based, human; details: MDA-MB-435; for GI50 / CC50: Homo sapiens; for CC50: read-out: LC50 (the source's name)
MCF7 = assay: NCI in vitro cancer screen, Breast Cancer; format: cell-based, human; details: MCF7; for GI50 / CC50: Homo sapiens; for CC50: read-out: LC50 (the source's name)
MOLT-4 = assay: NCI in vitro cancer screen, Leukemia; format: cell-based, human; details: MOLT-4; for GI50 / CC50: Homo sapiens; for CC50: read-out: LC50 (the source's name)
UACC-257 = assay: NCI in vitro cancer screen, Melanoma; format: cell-based, human; details: UACC-257; for GI50 / CC50: Homo sapiens; for CC50: read-out: LC50 (the source's name)
SW-620 = assay: NCI in vitro cancer screen, Colon Cancer; format: cell-based, human; details: SW-620; for GI50 / CC50: Homo sapiens; for CC50: read-out: LC50 (the source's name)

`CC(C)=CCc1c(O)cc(/C=C/c2ccc(O)cc2)c(CC=C(C)C)c1O` [USYDS6, (E)-2,4-di(3-methyl-2-buten-1-yl)-3,4′,5-trihydroxystilbene] was tested, and the TGI (A498) was 25.0 µM, the GI50 (A498) was 11.7 µM and the CC50 (A498) was 53.1 µM. The GI50 (U251) was 2.33 µM, the CC50 (U251) was 16.7 µM and the TGI (U251) was 5.31 µM. For the same molecule, the GI50 (NCI-H23; Homo sapiens) was 3.38 µM, the TGI (NCI-H23) was 15.7 µM and the GI50 (NCI-H226; Homo sapiens) was 1.47 µM. The TGI (NCI-H226) was 30.1 µM, the GI50 (MALME-3M) was 2.8 µM and the CC50 (MALME-3M) was 37.1 µM. It also gave a TGI (MALME-3M) of 8.56 µM, a GI50 (SF-539) of 4.48 µM and a CC50 (SF-539) of 57.1 µM. For the same molecule, the TGI (SF-539) was 17.6 µM, the GI50 (PC-3) was 1.8 µM and the CC50 (PC-3) was 8.44 µM. For the same molecule, the TGI (PC-3) was 3.89 µM, the TGI (CAKI-1) was 22.6 µM and the GI50 (CAKI-1) was 8.37 µM. The CC50 (CAKI-1) was 55.7 µM, the GI50 (MDA-MB-468) was 2.3 µM and the CC50 (MDA-MB-468) was 26 µM. For the same molecule, the TGI (MDA-MB-468) was 6.39 µM, the GI50 (NCI-H522) was 2.18 µM and the CC50 (NCI-H522) was 17.8 µM. For the same molecule, the TGI (NCI-H522) was 5.15 µM, the GI50 (TK-10; Homo sapiens) was 3.36 µM and the TGI (TK-10) was 9.33 µM. For the same molecule, the GI50 (SF-295) was 6.78 µM, the CC50 (SF-295) was 53.2 µM and the TGI (SF-295) was 20.8 µM. The GI50 (NCI-H460) was 1.89 µM, the CC50 (NCI-H460) was 8.06 µM and the TGI (NCI-H460) was 3.90 µM. It also gave a TGI (LOX IMVI) of 3.42 µM, a GI50 (LOX IMVI) of 1.76 µM and a CC50 (LOX IMVI) of 6.68 µM. For the same molecule, the GI50 (SK-MEL-28; Homo sapiens) was 11.2 µM, the TGI (SK-MEL-28) was 24.0 µM and the GI50 [1] was 1.72 µM. For the same molecule, the CC50 [1] was 17.2 µM, the TGI [1] was 4.54 µM and the TGI (HOP-92) was 4.67 µM. It also gave a GI50 (HOP-92) of 1.86 µM, a CC50 (HOP-92) of 14.5 µM and a GI50 (SNB-19) of 6.38 µM. The CC50 (SNB-19) was 52.7 µM, the TGI (SNB-19) was 20.6 µM and the GI50 (KM12) was 2.21 µM. The CC50 (KM12) was 8.64 µM, the TGI (KM12) was 4.37 µM and the GI50 (UO-31) was 2.51 µM. For the same molecule, the CC50 (UO-31) was 33.5 µM, the TGI (UO-31) was 7.50 µM and the GI50 (IGROV1) was 5.23 µM. For the same molecule, the CC50 (IGROV1) was 54.1 µM, the TGI (IGROV1) was 17.7 µM and the TGI (SN12C) was 7.98 µM. For the same molecule, the GI50 (SN12C) was 2.85 µM, the CC50 (SN12C) was 30.8 µM and the GI50 (MDA-MB-435) was 3.37 µM. For the same molecule, the CC50 (MDA-MB-435) was 42.1 µM, the TGI (MDA-MB-435) was 10.8 µM and the GI50 (MCF7) was 4.02 µM. It also gave a CC50 (MCF7) of 60.5 µM, a TGI (MCF7) of 18.0 µM and a GI50 (MOLT-4) of 1.59 µM. The CC50 (MOLT-4) was 16.8 µM, the TGI (MOLT-4) was 4.27 µM and the GI50 (UACC-257) was 3.49 µM. For the same molecule, the CC50 (UACC-257) was 39.8 µM, the TGI (UACC-257) was 14.4 µM and the GI50 (SW-620) was 1.84 µM. The CC50 (SW-620) was 6.82 µM and the TGI (SW-620) was 3.54 µM.
For `COc1cc(O)cc(/C=C/c2ccc(O)c(O)c2)c1CC=C(C)C` [USYDS9, (E)-2-(3-methyl-2-buten-1-yl)-3′,4′,5-trihydroxy-3-methoxystilbene], the TGI (A498) was 53.5 µM, the GI50 (A498) was 10.3 µM and the CC50 (A498) was > 100 µM. For the same molecule, the GI50 (U251) was 0.59 µM, the CC50 (U251) was > 100 µM and the TGI (U251) was 19.6 µM. The GI50 (NCI-H23; Homo sapiens) was 1.43 µM, the LC50 (NCI-H23; Homo sapiens) was > 100 µM and the TGI (NCI-H23) was >100 µM. For the same molecule, the GI50 (NCI-H226; Homo sapiens) was 18.6 µM, the LC50 (50% lethal concentration) (NCI-H226; Homo sapiens) was > 100 µM and the TGI (NCI-H226) was 57.9 µM. The GI50 (MALME-3M) was 0.62 µM, the CC50 (MALME-3M) was > 100 µM and the TGI (MALME-3M) was >100 µM. The GI50 (SF-539) was 0.28 µM, the CC50 (SF-539) was > 100 µM and the TGI (SF-539) was 1.02 µM. The GI50 (PC-3) was 2.92 µM, the CC50 (PC-3) was > 100 µM and the TGI (PC-3) was >100 µM. The TGI (CAKI-1) was >100 µM, the GI50 (CAKI-1) was 19.1 µM and the CC50 (CAKI-1) was > 100 µM. The GI50 (MDA-MB-468) was 2.42 µM, the CC50 (MDA-MB-468) was > 100 µM and the TGI (MDA-MB-468) was 8.48 µM. The GI50 (NCI-H522) was 0.15 µM, the CC50 (NCI-H522) was 44.8 µM and the TGI (NCI-H522) was 0.45 µM. The GI50 (TK-10; Homo sapiens) was 5.34 µM, the LC50 (TK-10; Homo sapiens) was > 100 µM and the TGI (TK-10) was 41.2 µM. For the same molecule, the GI50 (SF-295) was 2.6 µM, the CC50 (SF-295) was > 100 µM and the TGI (SF-295) was 20.5 µM. It also gave a GI50 (NCI-H460) of 0.47 µM, a CC50 (NCI-H460) of 75.7 µM and a TGI (NCI-H460) of 10.3 µM. For the same molecule, the TGI (LOX IMVI) was 58.6 µM, the GI50 (LOX IMVI) was 0.64 µM and the CC50 (LOX IMVI) was > 100 µM. The GI50 (SK-MEL-28; Homo sapiens) was 8.14 µM, the LC50 (SK-MEL-28; Homo sapiens) was > 100 µM and the TGI (SK-MEL-28) was >100 µM. For the same molecule, the GI50 [1] was 0.38 µM, the CC50 [1] was > 100 µM and the TGI [1] was 2.61 µM. The TGI (HOP-92) was >100 µM, the GI50 (HOP-92) was 0.62 µM and the CC50 (HOP-92) was > 100 µM. For the same molecule, the GI50 (SNB-19) was 0.55 µM, the CC50 (SNB-19) was > 100 µM and the TGI (SNB-19) was >100 µM. The GI50 (KM12) was 0.52 µM, the CC50 (KM12) was 63.9 µM and the TGI (KM12) was 12.2 µM. For the same molecule, the GI50 (UO-31) was 0.46 µM, the CC50 (UO-31) was > 100 µM and the TGI (UO-31) was >100 µM. The GI50 (IGROV1) was 4.57 µM, the CC50 (IGROV1) was > 100 µM and the TGI (IGROV1) was >100 µM. For the same molecule, the TGI (SN12C) was 83.5 µM, the GI50 (SN12C) was 1.76 µM and the CC50 (SN12C) was > 100 µM. For the same molecule, the GI50 (MDA-MB-435) was 0.13 µM, the CC50 (MDA-MB-435) was > 100 µM and the TGI (MDA-MB-435) was 0.42 µM. The GI50 (MCF7) was 2.81 µM, the CC50 (MCF7) was > 100 µM and the TGI (MCF7) was >100 µM. The GI50 (MOLT-4) was 1.27 µM, the CC50 (MOLT-4) was > 100 µM and the TGI (MOLT-4) was 6.77 µM. For the same molecule, the GI50 (UACC-257) was 6.15 µM, the CC50 (UACC-257) was > 100 µM and the TGI (UACC-257) was 59.2 µM. For the same molecule, the GI50 (SW-620) was 0.31 µM, the CC50 (SW-620) was 75 µM and the TGI (SW-620) was 15.3 µM.
